Residues, ends and D or L forms follow the SMILES beside them. No end group written: not given here.
Tests used:
MCF-10F cells [1] = settings: cells treated with E2; cited from earlier work
MCF-10F cells [2] = format: cell-based, human
LHCGR = experiment: real time RT-PCR, LHCGR gene expression; format: cell-based, human
CXCR1 = experiment: real time RT-PCR, CXCR1 gene expression; format: cell-based, human
GPR30 = experiment: real time RT-PCR, GPR30 gene expression; format: cell-based, human; settings: treated MCF-10F cells, data not shown
FAK/AKT/FOXO3A pathway = experiment: FAK, AKT and FOXO3A expression (unpublished data); format: cell-based; settings: previous results
[3] = biological target: T1, LH/hCG binding to rat ovarian membranes (Rattus norvegicus, UniProt P16235); settings: among two series of overlapping peptides of hCG (ref. 15); cited from earlier work
T1 construct: from tissue; host or cells: rat ovarian membranes

MCF-10F cells [4] = experiment: ductulogenesis and branching of MCF-10F cells in 3D collagen matrix; format: cell-based, human; settings: MCF-10F cells in collagen matrix, added to the culture medium
From the text: (§1) The cells grow along hollow branches forming ductules lined by a monolayer of epithelial cells. […] For these studies, we designed oligopeptides of the hCG beta subunit and had them synthesized by AAPPTec, LLC, Louisville, Ky. We selected a 15 aa peptide with a sequence “N”-[…]-“C” (SEQ ID NO: 2) that encompasses aa 81-95 and was designated PPFC-879-81-95.

[5] = test system: E2-transformed MCF-10F cells; experiment: solid mass formation and branching of E2-transformed MCF-10F cells in collagen; format: cell-based, human; settings: compared with r-hCG
[6] = test system: E2-transformed MCF-10F cells; experiment: invasiveness (cells traversing a matrigel membrane); format: cell-based, human
From the text: (§2) FIG. 2: (A) Effect of 17b-estradiol (E2), r-hCG and PPFC-879-81-95 peptide on formation of primary, secondary, and tertiary ducts by MCF10F cells grown in a collagen matrix. DMSO served as control. Ordinate, percentage of structures. (B) Effect of r-hCG and hCG peptide on colony formation. Only DMSO-treated (control) E2-cells formed solid masses. (C) Effect of r-hCG and hCG peptide on the invasive index of MCF10F, E2-transformed, E2T4, MCF-7 and MDA-MB-435 cells. Ordinate, number of cells traversing a matrigel membrane.
as §1

MCF-10F cells [7] = experiment: as above; format: cell-based, human
From the text: as §2, §1

MCF-7 = experiment: as above; format: cell-based, human
From the text: as §2, §1

MDA-MB-435 = experiment: as above; format: cell-based, human
From the text: as §2, §1

tumor derived E2T4 cells = experiment: as above; format: cell-based, human
From the text: as §2, §1

[8] = test system: human breast epithelial cells; experiment: genomic analysis of r-hCG and peptide-treated cells; format: cell-based
From the text: The down-regulation of BMI1 supports the concept that the preventive effect of hCG results from the shifting of the stem cell 1 to stem cell 2 (Russo, J., et al., (2006) Front Biosci., 11:151-172). This is only one example of identification of the molecular determinants of hormone specificity which provide the means to target the CG/LH-R for activation thereby conferring the protective effects against breast cancer.

LH/hCG-R in MA-10 cells = biological target: T2, LH/hCG-R in MA-10 cells (Mus musculus, UniProt P30730); experiment: intracellular cAMP production (enzyme immunoassay); format: cell-based; settings: 2.5 μg r-hCG/ml or 20 μM PPFC-879-81-95
T2 construct: endogenous in cells; host or cells: MA-10 mouse Leydig tumor cells

LH/hCG-R in MCF10F cells = biological target: T3, LH/hCG-R in MCF10F cells (Homo sapiens, UniProt P22888); experiment: intracellular cAMP production (enzyme immunoassay); format: cell-based; settings: 2.5 μg r-hCG/ml or 20 μM PPFC-879-81-95
T3 construct: For verifying the presence and functionality of the receptor in normal and transformed MCF10F cells; endogenous in cells; host or cells: MCF10F human breast epithelial cells
T3 sequence (P22888 27-699): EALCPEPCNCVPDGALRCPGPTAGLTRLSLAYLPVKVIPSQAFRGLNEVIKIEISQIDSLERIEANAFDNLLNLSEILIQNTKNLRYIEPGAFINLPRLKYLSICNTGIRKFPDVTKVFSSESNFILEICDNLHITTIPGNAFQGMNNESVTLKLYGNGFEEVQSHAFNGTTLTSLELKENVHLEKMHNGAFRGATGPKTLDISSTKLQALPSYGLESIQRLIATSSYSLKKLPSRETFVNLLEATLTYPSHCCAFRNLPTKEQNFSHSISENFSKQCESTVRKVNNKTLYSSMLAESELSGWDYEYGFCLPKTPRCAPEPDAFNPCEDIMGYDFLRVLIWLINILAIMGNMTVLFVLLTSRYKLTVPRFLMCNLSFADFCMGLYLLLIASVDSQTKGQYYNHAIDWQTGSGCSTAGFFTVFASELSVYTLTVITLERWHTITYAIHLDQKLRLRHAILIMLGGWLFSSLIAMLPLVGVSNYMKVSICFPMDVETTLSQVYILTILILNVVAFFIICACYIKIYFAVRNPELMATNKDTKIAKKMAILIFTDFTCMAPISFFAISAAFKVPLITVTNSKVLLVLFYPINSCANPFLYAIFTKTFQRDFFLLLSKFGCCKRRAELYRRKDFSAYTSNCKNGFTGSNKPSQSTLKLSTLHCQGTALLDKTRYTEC

T2 sequence (P30730 27-700): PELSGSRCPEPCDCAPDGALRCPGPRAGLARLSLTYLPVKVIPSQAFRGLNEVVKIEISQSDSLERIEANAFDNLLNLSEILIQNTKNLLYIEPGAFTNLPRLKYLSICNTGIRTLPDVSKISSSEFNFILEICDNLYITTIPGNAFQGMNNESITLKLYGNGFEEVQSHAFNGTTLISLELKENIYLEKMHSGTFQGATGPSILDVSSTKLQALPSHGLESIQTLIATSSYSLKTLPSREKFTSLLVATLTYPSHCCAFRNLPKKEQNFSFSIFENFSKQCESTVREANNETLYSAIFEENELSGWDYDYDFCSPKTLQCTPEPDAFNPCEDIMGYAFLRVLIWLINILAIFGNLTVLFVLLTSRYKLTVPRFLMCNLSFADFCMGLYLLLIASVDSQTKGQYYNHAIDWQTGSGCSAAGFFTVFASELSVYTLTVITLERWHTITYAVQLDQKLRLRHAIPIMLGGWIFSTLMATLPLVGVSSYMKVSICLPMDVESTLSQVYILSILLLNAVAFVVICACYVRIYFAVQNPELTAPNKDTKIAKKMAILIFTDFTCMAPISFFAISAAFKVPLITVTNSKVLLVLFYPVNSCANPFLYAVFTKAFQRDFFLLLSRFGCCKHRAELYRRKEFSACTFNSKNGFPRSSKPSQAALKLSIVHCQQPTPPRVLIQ
T1 sequence (P16235 27-700): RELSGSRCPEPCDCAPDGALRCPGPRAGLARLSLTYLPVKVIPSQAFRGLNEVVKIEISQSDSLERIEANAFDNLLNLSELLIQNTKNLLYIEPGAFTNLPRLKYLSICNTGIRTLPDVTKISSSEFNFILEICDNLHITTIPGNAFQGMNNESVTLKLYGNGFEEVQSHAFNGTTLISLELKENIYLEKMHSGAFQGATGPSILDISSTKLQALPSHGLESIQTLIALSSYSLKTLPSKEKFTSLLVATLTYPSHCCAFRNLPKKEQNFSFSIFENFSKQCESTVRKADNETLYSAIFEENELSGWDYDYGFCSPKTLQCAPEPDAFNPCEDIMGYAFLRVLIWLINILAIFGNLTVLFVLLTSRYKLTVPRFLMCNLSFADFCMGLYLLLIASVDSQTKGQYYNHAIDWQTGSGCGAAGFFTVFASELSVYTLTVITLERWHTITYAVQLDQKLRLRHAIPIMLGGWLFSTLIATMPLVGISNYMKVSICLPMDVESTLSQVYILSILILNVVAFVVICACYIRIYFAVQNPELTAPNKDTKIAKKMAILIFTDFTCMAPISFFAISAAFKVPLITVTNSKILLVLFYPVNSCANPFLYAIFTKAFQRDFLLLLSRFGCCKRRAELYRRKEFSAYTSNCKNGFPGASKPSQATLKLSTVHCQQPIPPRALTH

C[C@]12CC[C@@H]3c4ccc(O)cc4CC[C@H]3[C@@H]1CC[C@@H]2O [E2, 17-β-estradiol]
structures formed by MCF-10F cells in collagen after treatment (MCF-10F cells [1]): forming instead spherical structures with a multilayered epithelium that exhibits marked atypia

CC(C)C[C@H](NC(=O)[C@H](C)NC(=O)[C@@H](NC(=O)[C@@H]1CCCN1C(=O)[C@H](Cc1ccccc1)NC(=O)[C@@H](N)CO)C(C)C)C(=O)N[C@@H](CO)C(=O)N[C@@H](CS)C(=O)N[C@@H](CCCNC(=N)N)C(=O)N[C@@H](CS)C(=O)NCC(=O)N1CCC[C@H]1C(=O)N[C@@H](CS)C(=O)N[C@@H](CCCNC(=N)N)C(=O)N[C@@H](CCCNC(=N)N)C(N)=O [peptide, SFP VAL SCR CGP CRR-NH2] (H-SFPVALSCRCGPCRR-NH2; N-terminus assumed)
cell proliferation inhibition, peptide versus hCG (MCF-10F cells [2]; days 10 and 12, p<0.02): more potent cell proliferation inhibitor than hCG | decrease in the number of viable cells (MCF-10F cells [2]; human, 20 μM): 36-72% | hCG receptor (LHCGR) gene expression (LHCGR; MCF-10F, from the first day of treatment on): up-regulated | LHCGR gene expression, peptide versus hCG (LHCGR; last day of treatment (15th), p=0.06): tendency of the peptide to induce a higher levels gene expression than hCG | CXCR1 expression (CXCR1; MCF-10F, all along the treatment): down-regulated | CXCR1 down-regulation, peptide versus hCG (CXCR1; last day of treatment (15), p<0.01): down-regulation of the receptor was more apparent in the peptide-treated cells than in hCG treated cells | GPR30 mRNA expression (GPR30): undetectable or very low values | FAK and AKT (FAK/AKT/FOXO3A pathway): decrease | FOXO3A expression (FAK/AKT/FOXO3A pathway): up-regulate | inhibition of 125I-labeled hCG binding [3]: most potent inhibitor of LH/hCG binding

Ser-Tyr-Ala-Val-Ala-Leu-Ser-Cys-Gln-Cys-Ala-Leu-Cys-Arg-Arg (NH2) (SYAVALSCQCALCRR-NH2; cysteine pairing not given here) [PPFC-879-81-95, 15 aa peptide of the hCG beta subunit, aa 81-95]
number of secondary and tertiary ducts (branching pattern) (MCF-10F cells [4]): increasing the number of secondary and tertiary ducts | formation of solid masses in collagen [5]: abrogated more efficiently than r-hCG | invasiveness [6]: inhibited invasiveness | invasiveness (MCF-10F cells [7]): inhibited invasiveness | invasiveness (MCF-7): inhibited invasiveness | invasiveness (MDA-MB-435): inhibited invasiveness | invasiveness (tumor derived E2T4 cells): inhibited invasiveness | gene clusters activated or downregulated [8]: induced activation or downregulation of the same clusters of genes that were modified by either parity or r-hCG treatment | intracellular cAMP production (LH/hCG-R in MA-10 cells): time-dependent increase | intracellular cAMP production (LH/hCG-R in MCF10F cells): time-dependent increase
